In PubChem BioAssay (NCI):
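The compound was tested at five concentrations on cells cultured in 96-well plates, with a 48-hour exposure period. GI50: concentration for 50% inhibition of growth. TGI is the concentration that stops growth completely.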

Key:
Test in all cases: inhibition of tumour cell growth, NCI panel, 48 h
[1] = tested on: 786-0 renal
[2] = tested on: A498 renal
[3] = tested on: A549 NSCLC
[4] = tested on: ACHN renal
[5] = tested on: BT-549 breast
[6] = tested on: CAKI-1 renal
[7] = tested on: CCRF-CEM leukemia
[8] = tested on: COLO 205 colon
[9] = tested on: DU-145 prostate
[10] = tested on: EKVX NSCLC
[11] = tested on: HCC-2998 colon
[12] = tested on: HCT-116 colon
[13] = tested on: HCT-15 colon
[14] = tested on: HL-60(TB) leukemia
[15] = tested on: HOP-62 NSCLC
[16] = tested on: HOP-92 NSCLC
[17] = tested on: HS 578T breast
[18] = tested on: HT29 colon
[19] = tested on: IGROV1 ovarian
[20] = tested on: K-562 leukemia
[21] = tested on: KM12 colon
[22] = tested on: LOX IMVI melanoma
[23] = tested on: M14 melanoma
[24] = tested on: MALME-3M melanoma
[25] = tested on: MCF7 breast
[26] = tested on: MDA-MB-231 breast
[27] = tested on: MDA-MB-468 breast
[28] = tested on: MOLT-4 leukemia
[29] = tested on: NCI-H226 lung
[30] = tested on: NCI-H23 lung
[31] = tested on: NCI-H460 lung
[32] = tested on: NCI-H522 lung
[33] = tested on: OVCAR-3 ovarian
[34] = tested on: OVCAR-4 ovarian
[35] = tested on: OVCAR-5 ovarian
[36] = tested on: OVCAR-8 ovarian
[37] = tested on: PC-3 prostate
[38] = tested on: RPMI-8226 leukemia
[39] = tested on: RXF 393 renal
[40] = tested on: SF-268 CNS
[41] = tested on: SF-295 CNS
[42] = tested on: SF-539 CNS
[43] = tested on: SK-MEL-2 melanoma
[44] = tested on: SK-MEL-28 melanoma
[45] = tested on: SK-MEL-5 melanoma
[46] = tested on: SK-OV-3 ovarian
[47] = tested on: SN12C renal
[48] = tested on: SNB-19 CNS
[49] = tested on: SR leukemia
[50] = tested on: SW-620 colon
[51] = tested on: T-47D breast
[52] = tested on: TK-10 renal
[53] = tested on: U251 CNS
[54] = tested on: UACC-257 melanoma
[55] = tested on: UACC-62 melanoma
[56] = tested on: UO-31 renal

`COc1ccccc1Nc1nnc(-c2c[nH]c3ccccc23)o1` gave a GI50 [1] of 5.07 µM, a TGI [1] of 22.7 µM and a GI50 [2] of 17.8 µM. The TGI [2] was 53.9 µM, the GI50 [3] was 2.99 µM and the TGI [3] was > 100 µM. It also gave a GI50 [4] of 5.4 µM, a TGI [4] of 45.7 µM and a GI50 [5] of 3.07 µM. For the same compound, the TGI [5] was 26 µM, the GI50 [6] was 0.861 µM and the TGI [6] was 80 µM. The GI50 [7] was 0.708 µM, the TGI [7] was 21 µM and the GI50 [8] was 1.01 µM. For the same compound, the TGI [8] was 11.2 µM, the GI50 [9] was 4.26 µM and the TGI [9] was > 100 µM. For the same compound, the GI50 [10] was 2.63 µM, the TGI [10] was > 100 µM and the GI50 [11] was 2.55 µM. It also gave a TGI [11] of 16.2 µM, a GI50 [12] of 5.38 µM and a TGI [12] of 54 µM. It also gave a GI50 [13] of 0.451 µM, a TGI [13] of 21.8 µM and a GI50 [14] of 0.625 µM. It also gave a TGI [14] of 10.2 µM, a GI50 [15] of 3.11 µM and a TGI [15] of 40 µM. For the same compound, the GI50 [16] was 4.55 µM, the TGI [16] was 40.6 µM and the GI50 [17] was 2.2 µM. The TGI [17] was 15.6 µM, the GI50 [18] was 0.634 µM and the TGI [18] was 14.6 µM. For the same compound, the GI50 [19] was 0.682 µM, the TGI [19] was 37.9 µM and the GI50 [20] was 0.343 µM. The TGI [20] was 79.3 µM, the GI50 [21] was 2.33 µM and the TGI [21] was 16.5 µM. It also gave a GI50 [22] of 2.21 µM, a TGI [22] of 18.2 µM and a GI50 [23] of 0.982 µM. The TGI [23] was 22.7 µM, the GI50 [24] was 0.816 µM and the TGI [24] was 15 µM. For the same compound, the GI50 [25] was 0.614 µM, the TGI [25] was 17.5 µM and the GI50 [26] was 2.91 µM. For the same compound, the TGI [26] was 24.6 µM, the GI50 [27] was 0.644 µM and the TGI [27] was 3.37 µM. For the same compound, the GI50 [28] was 0.716 µM, the TGI [28] was 14.4 µM and the GI50 [29] was 4.69 µM. For the same compound, the TGI [29] was > 100 µM, the GI50 [30] was 1.89 µM and the TGI [30] was 16.6 µM. For the same compound, the GI50 [31] was 1.66 µM, the TGI [31] was 12.8 µM and the GI50 [32] was 0.476 µM. For the same compound, the TGI [32] was 3.68 µM, the GI50 [33] was 1.59 µM and the TGI [33] was 9.55 µM. The GI50 [34] was 7.54 µM, the TGI [34] was > 100 µM and the GI50 [35] was 4.99 µM. It also gave a TGI [35] of 32.2 µM, a GI50 [36] of 2.87 µM and a TGI [36] of 26.2 µM. The GI50 [37] was 2.86 µM, the TGI [37] was > 100 µM and the GI50 [38] was 2.25 µM. For the same compound, the TGI [38] was 16.9 µM, the GI50 [39] was 2.09 µM and the TGI [39] was 8.14 µM. The GI50 [40] was 3.77 µM, the TGI [40] was > 100 µM and the GI50 [41] was 0.857 µM. The TGI [41] was 5.69 µM, the GI50 [42] was 1.63 µM and the TGI [42] was 4.76 µM. The GI50 [43] was 0.82 µM, the TGI [43] was 2.82 µM and the GI50 [44] was 4.48 µM. For the same compound, the TGI [44] was 24 µM, the GI50 [45] was 2.02 µM and the TGI [45] was 5.81 µM. It also gave a GI50 [46] of 1.93 µM, a TGI [46] of 25.4 µM and a GI50 [47] of 3.01 µM. The TGI [47] was 16.4 µM, the GI50 [48] was 3.14 µM and the TGI [48] was > 100 µM. It also gave a GI50 [49] of 0.395 µM, a TGI [49] of 46.4 µM and a GI50 [50] of 0.598 µM. For the same compound, the TGI [50] was > 100 µM, the GI50 [51] was 2.87 µM and the TGI [51] was 25 µM. For the same compound, the GI50 [52] was 7.28 µM, the TGI [52] was > 100 µM and the GI50 [53] was 2.43 µM. For the same compound, the TGI [53] was 16.4 µM, the GI50 [54] was 4.95 µM and the TGI [54] was 32.4 µM. The GI50 [55] was 1.39 µM, the TGI [55] was 14.5 µM and the GI50 [56] was 3.65 µM. It also gave a TGI [56] of 55 µM.
